Broadly, the inhibition is the share of the control response that was lost under treatment.

Experimental findings from patent US9365540B2, “Benzimidazole derivatives as MCH receptor antagonists” (Takeda Pharmaceutical Company Limited, priority 2012, dated 2016) are described below.

Data set [1] has as its target T1, human MCH receptor 1 (MCHR1) (Homo sapiens, UniProt Q99705).
T1 construct: expressed in transfected cells; host or cells: CHO cell clone 57 (membrane fraction)
Briefly: human MCH receptor 1 (MCHR1) competitive binding assay with [125I]-MCH(4-19). Conditions: test compound 0.1 μM, human MCHR1-expressing CHO cell membrane fraction, read-out: Binding inhibition rate % (0.1 μM). The method in brief: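 Membranes from CHO cells expressing human MCHR1 incubated with [125I]-MCH(4-19) and test compound in 20 mM Tris-HCl pH 7.5/5 mM EDTA with protease inhibitors, 1 hr at room temperature. Bound radioactivity collected on PEI-treated GF/C filters; % inhibition at 0.1 μM compound, nonspecific binding set with cold MCH(1-19).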

Data set [2] has as its system male diet-induced obese F344/Jcl rats. Description: Anorectic effect in male diet-induced obese F344/Jcl rats. It is filed as in vivo, rat. Conditions: Rattus norvegicus, po, 48 h, 5 mg/mL suspension at 2 mL/kg, two administrations, food intake for 2 days vs control group, read-out: Food intake suppression rate (%). The procedure:
Evaluation of Anorectic Effect Using Male Diet-Induced Obese F344/Jcl Rats
Male diet-induced obese F344/Jcl rats (44-50 weeks old) fed with a high-fat diet (D12451: Research Diets) from 5 weeks old were used. From before the start of experiment, the rats were singly housed, given a powder high-fat diet (D12451M: Research Diets), and habituated to oral administration with tap water. The food intake from the evening of the day before the start of experiment to the next morning was measured, and the rats were grouped based on both the food intake and the body weight of the previous day. In the evening of the day of the start of experiment and the next day, 0.5% methylcellulose solution was orally administered to the control group, and 0.5% methylcellulose suspension (5 mg/mL) of the test compound was orally administered to the compound administration group at 2 mL/kg (6 per group for both control group and compound administration group). The food intake for 2 days from the initial administration was measured. The food intake inhibition rate of each compound administration group to the control group was calculated.

Data set [3] addresses T2, HERG (Homo sapiens, UniProt Q12809).
T2 construct: host or cells: HERG.T.HEK (HEK cells, G418 selection)
Description: HERG inhibitory activity, whole-cell patch clamp. Conditions: 10 μM test compound; HERG.T.HEK cells; peak tail current. It is filed as cell-based. From the text: Evaluation of HERG Inhibitory Activity
MEM medium, MEM nonessential amino acid solution, sodium pyruvate solution and G418 sulfate solution (Geneticin) were purchased from Invitrogen Corporation (Carlsbad, Calif.). Bovine serum albumin (BSA, Fatty Acid Free) was a product of Wako Pure Chemical Industries, Ltd. (Osaka, Japan). Fetal calf serum (FCS) was a product of Trau Scientific Ltd. (Melbourne, Australia).
As HERG-expressing cell HERG.T.HEK, the cell obtained from Wisconsin ALUMNI Research Foundation was used. HERG.T.HEK was maintained and passaged at 37° C. in the presence of 5% CO2 using an MEM medium containing 10% FCS, 1 mM MEM nonessential amino acid, 1 mM sodium pyruvate and 500 μg/ml Geneticin.
80-90% confluent cells were collected by a trypsin treatment and plated on an IVF dish (Falcon, Franklin Lakes, N.J.). […] A preliminary stimulation was applied and the HERG electric current value (peak tail current) was measured when the electric current waveform was stabilized.
For measurement of the HERG electric current with addition of the test compound, the cells were first perfused with the extracellular fluid and, when the waveform was stabilized, the cells were perfused with an extracellular fluid containing 10 μM of a test compound. When the electric current waveform was stabilized under respective perfuse conditions, the HERG electric current was measured.
The HERG electric current inhibitory rate (%) of the test compound was calculated with the HERG electric current value without addition of the test compound as 100%.
On the technique in general: In patch-clamp work, channel activity is measured electrically.

T1 sequence (Q99705 whole entry): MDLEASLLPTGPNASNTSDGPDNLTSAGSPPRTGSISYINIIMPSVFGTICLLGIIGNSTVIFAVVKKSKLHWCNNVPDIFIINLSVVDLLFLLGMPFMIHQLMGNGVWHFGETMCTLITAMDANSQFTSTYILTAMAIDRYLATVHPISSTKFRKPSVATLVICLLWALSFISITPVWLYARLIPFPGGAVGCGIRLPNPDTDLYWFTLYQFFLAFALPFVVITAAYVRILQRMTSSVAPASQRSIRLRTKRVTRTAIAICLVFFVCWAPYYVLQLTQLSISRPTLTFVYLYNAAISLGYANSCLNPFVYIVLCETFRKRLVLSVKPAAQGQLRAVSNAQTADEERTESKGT
T2 sequence (Q12809 whole entry): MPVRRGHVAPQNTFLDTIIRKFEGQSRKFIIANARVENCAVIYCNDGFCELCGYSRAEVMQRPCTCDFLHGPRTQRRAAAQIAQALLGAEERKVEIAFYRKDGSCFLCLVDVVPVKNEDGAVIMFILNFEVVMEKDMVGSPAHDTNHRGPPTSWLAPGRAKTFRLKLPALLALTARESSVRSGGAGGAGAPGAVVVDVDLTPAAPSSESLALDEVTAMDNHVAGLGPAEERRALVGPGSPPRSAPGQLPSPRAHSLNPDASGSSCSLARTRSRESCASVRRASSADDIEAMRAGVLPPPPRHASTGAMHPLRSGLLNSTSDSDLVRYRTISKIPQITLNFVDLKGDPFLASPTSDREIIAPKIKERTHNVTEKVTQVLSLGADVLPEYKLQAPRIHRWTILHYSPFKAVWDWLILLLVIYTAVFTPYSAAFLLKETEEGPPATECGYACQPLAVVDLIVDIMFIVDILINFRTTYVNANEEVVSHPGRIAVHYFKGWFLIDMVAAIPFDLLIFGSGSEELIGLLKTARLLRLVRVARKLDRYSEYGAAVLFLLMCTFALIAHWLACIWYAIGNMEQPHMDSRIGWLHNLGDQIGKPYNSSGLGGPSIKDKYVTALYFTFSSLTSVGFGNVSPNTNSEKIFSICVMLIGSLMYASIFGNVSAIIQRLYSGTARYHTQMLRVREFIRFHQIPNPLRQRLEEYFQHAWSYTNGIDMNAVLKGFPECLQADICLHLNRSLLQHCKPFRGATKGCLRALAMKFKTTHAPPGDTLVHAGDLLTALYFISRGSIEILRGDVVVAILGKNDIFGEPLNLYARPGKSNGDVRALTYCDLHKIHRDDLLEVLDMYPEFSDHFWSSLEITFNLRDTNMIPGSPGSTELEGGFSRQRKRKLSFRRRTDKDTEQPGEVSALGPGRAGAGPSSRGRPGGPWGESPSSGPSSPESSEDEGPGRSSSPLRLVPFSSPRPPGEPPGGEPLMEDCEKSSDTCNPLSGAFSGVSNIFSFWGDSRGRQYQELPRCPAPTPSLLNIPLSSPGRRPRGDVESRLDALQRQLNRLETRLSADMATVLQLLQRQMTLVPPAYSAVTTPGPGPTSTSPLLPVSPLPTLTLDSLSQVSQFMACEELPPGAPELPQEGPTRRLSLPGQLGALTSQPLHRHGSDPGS

Regarding `Cn1c(C2CC2)nc2ccc(-n3ccc(OCc4ccc(F)cc4)cc3=O)cc21` [Example 2, 1-(2-Cyclopropyl-1-methyl-1H-benzimidazol-6-yl)-4-((4-fluorobenzyl)oxy)pyridin-2(1H)-one], the inhibition at 0.1 µM in data set [1] was 80%. Also, the inhibition in vivo at 5000 µg/mL, 10 mg/kg in data set [2] is 27.8%. For the same compound, in data set [3], the “HERG inhibitory action (%)” value is 27.3%.

On to `CCc1nc2ccc(-n3ccc(OCc4ccc(F)cc4)cc3=O)cc2n1C` [Example 63, 1-(2-Ethyl-1-methyl-1H-benzimidazol-6-yl)-4-((4-fluorobenzyl)oxy)pyridin-2(1H)-one], for which the inhibition at 0.1 µM in data set [1] amounted to 74%. The inhibition in vivo at 5000 µg/mL, 10 mg/kg in data set [2] is 45.5%. Moreover, the “HERG inhibitory action (%)” value in data set [3] turned out to be 23.0%.

As for `Cc1nc2ccc(-n3ccc(OCc4ccc(F)cc4)cc3=O)cc2n1C` [Example 254, 1-(1,2-Dimethyl-1H-benzimidazol-6-yl)-4-((4-fluorobenzyl)oxy)pyridin-2(1H)-one], the inhibition at 0.1 µM in data set [1] was 57%. Further, the inhibition in vivo at 5000 µg/mL, 10 mg/kg in data set [2] came out at 38.7%. The “HERG inhibitory action (%)” value in data set [3] came to 26.4%.
